# Legend:
# Type in all cases: in vivo
# [1] = system: velvetleaf (Abutilon theophrasti, ABUTH); assay: Post-emerge test, greenhouse herbicide activity screening; details: post-emerge, 14 days after application, rating scale 0-100
# Summary of the method: (§1)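 Herbicidal damage is scored 0 (none) to 100 (complete plant death) two weeks after a simulated field spray. Rates span 15–1000 g ai/ha, delivered in acetone at 187 l/ha. For post-emergence treatments, plants have 2–3 leaves and the spray carries 0.25% v/v non-ionic surfactant.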
# [2] = system: ivyleaf morningglory (Ipomoea hederacea, IPOHE); assay: as above; details: post-emerge, 14 days after application, rating scale 0-100
# Summary of the method: as §1
# [3] = system: lambsquarters (Chenopodium album, CHEAL); assay: as above; details: post-emerge, 14 days after application, rating scale 0-100
# Summary of the method: as §1
# [4] = system: large crabgrass (Digitaria sanguinalis, DIGSA); assay: as above; details: post-emerge, 14 days after application, rating scale 0-100
# Summary of the method: as §1
# [5] = system: johnsongrass (Sorghum halepense, SORHA); assay: as above; details: post-emerge, 14 days after application, rating scale 0-100
# Summary of the method: as §1
# [6] = system: barnyardgrass (Echinochloa crus-galli, ECHCG); assay: as above; details: post-emerge, 14 days after application, rating scale 0-100
# Summary of the method: as §1
# [7] = system: sicklepod (Cassia obtusifolia, CASOB); assay: as above; details: post-emerge, 14 days after application, rating scale 0-100
# Summary of the method: as §1
# [8] = system: green foxtail (Setaria viridis, SETVI); assay: as above; details: post-emerge, 14 days after application, rating scale 0-100
# Summary of the method: as §1
# [9] = system: redroot pigweed (Amaranthus retroflexus, AMARE); assay: as above; details: post-emerge, 14 days after application, rating scale 0-100
# Summary of the method: as §1
# [10] = system: redroot pigweed (Amaranthus retroflexus, AMARE); assay: Pre-emerge test, greenhouse herbicide activity screening; details: rated 14 days after application, 0 = no damage, 100 = complete death
# Summary of the method: (§2)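 Visual ratings on a 0-100 scale (0 no damage, 100 all plants dead) were taken at 14 days after treatment. Rates of 15-1000 g ai/ha in acetone, 187 l/ha, were sprayed onto soil one day after planting (pre-emerge) or onto 2-3 leaf plants with 0.25% v/v surfactant (post-emerge).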
# [11] = system: upland rice (Oryza sp., var. Tebonnet, RICE); assay: Pre-emerge test, crop safety; details: rated 14 days after application, 0 = no damage, 100 = complete death
# Summary of the method: as §2
# [12] = system: field corn (Zea mays L., var. Dekalb 535, CORN); assay: Pre-emerge test, crop safety; details: rated 14 days after application, 0 = no damage, 100 = complete death
# Summary of the method: as §2
# [13] = system: velvetleaf (Abutilon theophrasti, ABUTH); assay: Pre-emerge test, greenhouse herbicide activity screening; details: rated 14 days after application, 0 = no damage, 100 = complete death
# Summary of the method: (§3)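 Compounds in acetone were track-sprayed at 15–1000 g ai/ha: pre-emergence onto soil sown the previous day, then top-watered to incorporate and later bottom-watered; post-emergence onto 2–3 leaf plants with 0.25% v/v surfactant, bottom-watered only. Ratings on a 0–100 phytotoxicity scale were taken at day 14.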
# [14] = system: ivyleaf morningglory (Ipomoea hederacea, IPOHE); assay: as above; details: rated 14 days after application, 0 = no damage, 100 = complete death
# Summary of the method: as §3
# [15] = system: lambsquarters (Chenopodium album, CHEAL); assay: as above; details: rated 14 days after application, 0 = no damage, 100 = complete death
# Summary of the method: as §3
# [16] = system: large crabgrass (Digitaria sanguinalis, DIGSA); assay: as above; details: rated 14 days after application, 0 = no damage, 100 = complete death
# Summary of the method: as §3
# [17] = system: johnsongrass (Sorghum halepense, SORHA); assay: as above; details: rated 14 days after application, 0 = no damage, 100 = complete death
# Summary of the method: as §3
# [18] = system: barnyardgrass (Echinochloa crus-galli, ECHCG); assay: as above; details: rated 14 days after application, 0 = no damage, 100 = complete death
# Summary of the method: as §3
# [19] = system: sicklepod (Cassia obtusifolia, CASOB); assay: as above; details: rated 14 days after application, 0 = no damage, 100 = complete death
# Summary of the method: as §3
# [20] = system: green foxtail (Setaria viridis, SETVI); assay: as above; details: rated 14 days after application, 0 = no damage, 100 = complete death
# Summary of the method: as §3
# [21] = system: upland rice (Oryza sp., var. Tebonnet, RICE); assay: Post-emerge test, crop safety; details: post-emerge, 14 days after application, rating scale 0-100
# Summary of the method: (§4)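 Rating: 0–100 visual injury, 14 DAA. Application: acetone, 187 l/ha, 15–1000 g ai/ha, flat-fan track sprayer with nozzle 40–45 cm above soil or canopy. Post-emerge runs used 0.25% v/v surfactant on 2–3 leaf plants.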
# [22] = system: field corn (Zea mays L., var. Dekalb 535, CORN); assay: Post-emerge test, crop safety; details: post-emerge, 14 days after application, rating scale 0-100
# Summary of the method: as §4
compound,measurement,setting,value
COc1c(Cl)cc(F)c(-n2c(=O)cc(C(F)(F)F)n(C)c2=O)c1NC(=O)COCc1ccccc1 [2-89],phytotoxicity rating ABUTH,[1]; 63 g ai/ha,100
same,phytotoxicity rating ABUTH,[1]; 250 g ai/ha,100
same,phytotoxicity rating IPOHE,[2]; 63 g ai/ha,90
same,phytotoxicity rating IPOHE,[2]; 250 g ai/ha,100
same,phytotoxicity rating CHEAL,[3]; 63 g ai/ha,60
same,phytotoxicity rating CHEAL,[3]; 250 g ai/ha,90
same,phytotoxicity rating DIGSA,[4]; 63 g ai/ha,0
same,phytotoxicity rating DIGSA,[4]; 250 g ai/ha,0
same,phytotoxicity rating SORHA,[5]; 63 g ai/ha,0
same,phytotoxicity rating SORHA,[5]; 250 g ai/ha,10
same,phytotoxicity rating ECHCG,[6]; 63 g ai/ha,0
same,phytotoxicity rating ECHCG,[6]; 250 g ai/ha,10
same,phytotoxicity rating CASOB,[7]; 63 g ai/ha,50
same,phytotoxicity rating CASOB,[7]; 250 g ai/ha,60
same,phytotoxicity rating SETVI,[8]; 63 g ai/ha,20
same,phytotoxicity rating SETVI,[8]; 250 g ai/ha,20
same,phytotoxicity rating AMARE,[9]; 63 g ai/ha,70
same,phytotoxicity rating AMARE,[9]; 250 g ai/ha,100
same,"Pre-emerge Herbicidal Activity, phytotoxicity rating (0-100), AMARE",[10]; 63 g ai/ha,100
same,"Pre-emerge Herbicidal Activity, phytotoxicity rating (0-100), AMARE",[10]; 250 g ai/ha,100
same,"Pre-emerge phytotoxicity rating (0-100), crop damage, RICE",[11]; 63 g ai/ha,40
same,"Pre-emerge phytotoxicity rating (0-100), crop damage, RICE",[11]; 250 g ai/ha,90
same,"Pre-emerge phytotoxicity rating (0-100), crop damage, CORN",[12]; 63 g ai/ha,10
same,"Pre-emerge phytotoxicity rating (0-100), crop damage, CORN",[12]; 250 g ai/ha,30
same,"Pre-emerge Herbicidal Activity, phytotoxicity rating (0-100), ABUTH",[13]; 63 g ai/ha,100
same,"Pre-emerge Herbicidal Activity, phytotoxicity rating (0-100), ABUTH",[13]; 250 g ai/ha,100
same,"Pre-emerge Herbicidal Activity, phytotoxicity rating (0-100), IPOHE",[14]; 63 g ai/ha,95
same,"Pre-emerge Herbicidal Activity, phytotoxicity rating (0-100), IPOHE",[14]; 250 g ai/ha,100
same,"Pre-emerge Herbicidal Activity, phytotoxicity rating (0-100), CHEAL",[15]; 63 g ai/ha,100
same,"Pre-emerge Herbicidal Activity, phytotoxicity rating (0-100), CHEAL",[15]; 250 g ai/ha,100
same,"Pre-emerge Herbicidal Activity, phytotoxicity rating (0-100), DIGSA",[16]; 63 g ai/ha,99
same,"Pre-emerge Herbicidal Activity, phytotoxicity rating (0-100), DIGSA",[16]; 250 g ai/ha,100
same,"Pre-emerge Herbicidal Activity, phytotoxicity rating (0-100), SORHA",[17]; 63 g ai/ha,60
same,"Pre-emerge Herbicidal Activity, phytotoxicity rating (0-100), SORHA",[17]; 250 g ai/ha,90
same,"Pre-emerge Herbicidal Activity, phytotoxicity rating (0-100), ECHCG",[18]; 63 g ai/ha,50
same,"Pre-emerge Herbicidal Activity, phytotoxicity rating (0-100), ECHCG",[18]; 250 g ai/ha,90
same,"Pre-emerge Herbicidal Activity, phytotoxicity rating (0-100), CASOB",[19]; 63 g ai/ha,95
same,"Pre-emerge Herbicidal Activity, phytotoxicity rating (0-100), CASOB",[19]; 250 g ai/ha,100
same,"Pre-emerge Herbicidal Activity, phytotoxicity rating (0-100), SETVI",[20]; 63 g ai/ha,100
same,"Pre-emerge Herbicidal Activity, phytotoxicity rating (0-100), SETVI",[20]; 250 g ai/ha,100
same,phytotoxicity rating RICE,[21]; 63 g ai/ha,60
same,phytotoxicity rating RICE,[21]; 250 g ai/ha,70
same,phytotoxicity rating CORN,[22]; 63 g ai/ha,0
same,phytotoxicity rating CORN,[22]; 250 g ai/ha,0

# Reference: patent US6355799B1, “Substituted benzene compounds, process for their preparation, and herbicidal and defoliant compositions containing them” (ISK Americas Incorporated, priority 1997, dated 2002)
